Reference: PubChem BioAssay AID1996
In brackets after ≈: the same amount, converted by molar mass.

conditions: buffer; pH 7.4; 200.0 µM

Point of comparison: `N/C(CSc1ccccn1)=N\OCc1c(Cl)cccc1Cl`, solubility kinetic 29 µg/mL (≈ 84.7 µM). Against it:
- COc1cc2ccccc2cc1C(=O)N1CC(C)CC(C)C1 (stereo not given) — higher, > 44.6 µg/mL
- CC(Cl)C(=O)c1ccc2c(c1)CCN2C(=O)C1CC1 (stereo not given) — 3-fold lower, 9.6 µg/mL (≈ 34.6 µM)
- CC(C(N)=O)N1C(=O)NC2(CCCc3ccccc32)C1=O (stereo not given) — higher, > 43.1 µg/mL
- COc1ccc(NC(=O)COC(=O)C2CCN(S(=O)(=O)c3cccs3)CC2)cc1OC — 1.6-fold higher, 47.1 µg/mL (≈ 101 µM)
- Cn1c(=O)n(C)c2cc(NC(=O)COc3ccc(F)cc3)ccc21 — within 1.5-fold, 40.7 µg/mL (≈ 124 µM)
- CC(=NCc1ccco1)c1c(O)n(-c2ccc(C)cc2)c(=O)[nH]c1=O — 2.3-fold lower, 12.5 µg/mL (≈ 36.8 µM)
- COC(=O)c1ccc(NC(=S)NC(=O)C2CCC2)cc1 — 5.9-fold lower, 4.9 µg/mL (≈ 16.8 µM)
- CN1CCN(c2c(F)cc([N+](=O)[O-])c(N)c2Br)CC1 — higher, > 50 µg/mL
- O=C(NC1CCN(C(=S)Nc2ccccc2)CC1)C1CCCCC1 — 14-fold lower, 2.1 µg/mL (≈ 6.08 µM)
- O=C1c2ccccc2NC(c2ccccc2O)N1O (stereo not given) — higher, > 38.4 µg/mL
- O=C(O)/C=C/C(=O)Nc1nc(-c2ccc3ccccc3c2)cs1 — higher, > 48.7 µg/mL
- CCC(CC)COC(=O)C1=C(C)NC(=O)NC1c1ccc(OC)cc1 (stereo not given) — 9.7-fold lower, 3 µg/mL (≈ 8.66 µM)
- COc1cccc(Nc2nc(-c3ccccc3)nc3ccccc23)c1 — 9.1-fold lower, 3.2 µg/mL (≈ 9.77 µM)
- Cc1csc(=O)n1CC(=O)Nc1ccc(C(C)C)cc1 — within 1.5-fold, 29.4 µg/mL (≈ 101 µM)
- O=C1CSC(c2ccccc2F)N1 (stereo not given) — higher, > 29.6 µg/mL
- O=C(Nc1nc2ccccc2[nH]1)c1cc(F)cc(F)c1 — 41-fold lower, 0.7 µg/mL (≈ 2.56 µM)
- CCN(Cc1ccncc1)C(=O)Cc1cccs1 — higher, > 39.1 µg/mL
- COc1ccc(C(=O)n2cnc3ccccc32)cc1Br — 1.6-fold higher, 46.7 µg/mL (≈ 141 µM)
- N#Cc1ccccc1NC(=O)COC(=O)c1c[nH]c2ccccc12 — 6.6-fold lower, 4.4 µg/mL (≈ 13.8 µM)
- CCSc1nc2ccc(C)cc2cc1C#N — lower, < 0.2 µg/mL
- Cn1c(SCC(=O)NC2CCS(=O)(=O)C2)nc2ccccc21 (stereo not given) — higher, > 50.9 µg/mL
- O=C(NC1CCCC1)c1cc(=O)[nH]c2ccccc12 — within 1.5-fold, 33.6 µg/mL (≈ 131 µM)
- COc1ccc(OC(C)C(=O)NCC2CCCO2)cc1 (stereo not given) — higher, > 41.9 µg/mL
- O=C(Nc1ccon1)c1sc2cc(Cl)ccc2c1Cl — lower, < 0.3 µg/mL
- Cc1nccn1CCOc1ccccc1Cl — within 1.5-fold, 33.2 µg/mL (≈ 140 µM)
- CCN1CCN(CC(=O)N2c3ccccc3Sc3ccccc32)CC1 — higher, > 53 µg/mL
- CC1CCCN(C(=O)c2ccc3c(c2)OCCO3)C1 (stereo not given) — higher, > 39.2 µg/mL
- N#Cc1cccc(C#N)c1Oc1ccc(S(=O)(=O)Nc2ccccc2)cc1 — 1.6-fold lower, 18.4 µg/mL (≈ 49 µM)
- CCNC(=O)CC1C(=O)N(CC)C(=S)N1NC(=O)c1cccnc1 (stereo not given) — higher, > 52.4 µg/mL
- Cc1ccc(NCC(=O)N/N=C/c2cc(O)ccc2[N+](=O)[O-])cc1 — higher, > 49.2 µg/mL
- COc1ccc(CCNC(=O)/C=C/C(=O)O)cc1 — higher, > 37.4 µg/mL
- CSc1nc2c(C)c(C)c(C)c(C)c2[nH]1 — 9.1-fold lower, 3.2 µg/mL (≈ 14.5 µM)
- S=C(NCC(c1ccco1)N1CCCC1)Nc1ccccc1 (stereo not given) — higher, > 47.3 µg/mL
- CCCS(=O)(=O)N1CCCC(C(=O)NCCc2ccccc2)C1 (stereo not given) — 1.7-fold higher, 48.5 µg/mL (≈ 143 µM)
- CC(C)C(=O)O/N=C(\N)c1ccc(Oc2ccc(Cl)cc2)c([N+](=O)[O-])c1 — 8.3-fold lower, 3.5 µg/mL (≈ 9.26 µM)
- COc1ccc(-c2ncncc2-c2ccc(OC)c(OC)c2)c(O)c1 — higher, > 50.8 µg/mL
- C/C(=N\O)c1ccc(Cl)c(Cl)c1 — 2.4-fold lower, 11.9 µg/mL (≈ 58.3 µM)
- COc1cc(C)ccc1OCC(=O)NC1CCCCCC1 — within 1.5-fold, 40.5 µg/mL (≈ 139 µM)
- Cc1cccc2sc(NC(=O)CCNC(=O)c3ccco3)nc12 — 5.2-fold lower, 5.6 µg/mL (≈ 17 µM)
- O=C(Nc1ccc(F)c(Cl)c1)C1CC(=O)n2c(nc3ccccc32)N1 (stereo not given) — 72-fold lower, 0.4 µg/mL (≈ 1.11 µM)
- Cc1ccc(C(=O)OC(C)C(=O)NC2CCCCC2C)s1 (stereo not given) — 2-fold lower, 14.6 µg/mL (≈ 47.2 µM)
- COc1ccc(N2CCOCC2)c(NC(=O)c2cc3ccccc3o2)c1 — lower, < 0.4 µg/mL
- CC(=O)c1cc2c(cc1NC(=O)c1ccc(Cl)cc1)OCCO2 — lower, < 0.7 µg/mL
- CC(NCCN(C)C)C(=O)C12CC3CC(CC(C3)C1)C2.Cl (stereo not given) — 1.8-fold higher, 52.4 µg/mL
- CCOc1ccccc1/C=C(\C#N)C(=O)NC1CC1 — within 1.5-fold, 31.3 µg/mL (≈ 122 µM)
- O=C(Cc1ccccc1)NCC(=O)N/N=C/c1ccc(C(=O)O)cc1 — higher, > 50.9 µg/mL
- Cn1c(SCC(=O)NCc2ccco2)nnc1C1CC1 — higher, > 43.9 µg/mL
- O=C(Cc1ccc(Cl)c(Cl)c1)Nc1cccnc1 — higher, > 42.2 µg/mL
- Cc1cccc(C(C)C)c1NS(=O)(=O)c1cn(C)nc1C — higher, > 46.1 µg/mL
- CC(=O)N1N=C(N)SC1(C)C — not separable, > 26 µg/mL
- CCOc1ccc2nc(NC(=O)C3CCCO3)sc2c1 (stereo not given) — higher, > 43.9 µg/mL
- CC(NC(=O)CCCC1CCCCC1)c1ccc(S(N)(=O)=O)cc1 (stereo not given) — higher, > 52.9 µg/mL
- CCNC(=O)C1CCCN(c2nc(C)cc(C)n2)C1 (stereo not given) — higher, > 39.4 µg/mL
- O=C(COC(=O)c1cccs1)Nc1ccccc1C(F)(F)F — 12-fold lower, 2.5 µg/mL (≈ 7.59 µM)
- Cc1ccc(NC(=S)NCC2CCN(C(C)c3ccccc3)C2)cc1 (stereo not given) — higher, > 53 µg/mL
- CCNc1ccc(S(=O)(=O)N2CCCCC2)cn1 — higher, > 40.4 µg/mL
- O=C(Cn1c(C(=O)OCCO)cc2ccccc21)c1ccccc1 — 4.3-fold lower, 6.8 µg/mL (≈ 21 µM)
- COc1cc(SC)ccc1C(=O)OCC(=O)NCC(C)C — higher, > 46.7 µg/mL
- Cc1ccc(C(=O)CCC(=O)Nc2ncccc2C)cc1 — higher, > 42.4 µg/mL
- CCN(C(=O)COC(=O)C1=COCCO1)c1ccccc1 — higher, > 43.7 µg/mL
- CCOc1ccc(NC(=S)N2CCC(NC(=O)c3ccccc3)CC2)cc1 — 6.9-fold lower, 4.2 µg/mL (≈ 11 µM)
- CC(=O)c1c(OC(=O)c2ccccc2)ccnc1C(F)(F)F — higher, > 46.4 µg/mL
- Cc1cccc(C)c1NC(=O)CNC(=O)C1CCCC1 — higher, > 41.2 µg/mL
- CCOc1ccc(/C=C/c2nc(C#N)c(NCCCN(C)C)o2)cc1 — higher, > 51.1 µg/mL
- O=C1CSC(=Nc2ccc(O)cc2)N1 — higher, > 31.2 µg/mL
- COc1ccc(NC(=O)Cc2ccc(Cl)c(Cl)c2)cn1 — 3.3-fold lower, 8.9 µg/mL (≈ 28.6 µM)
- Cc1ccc(Cl)cc1NC(=O)CC1NC2CCCCC2NC1=O (stereo not given) — within 1.5-fold, 38.6 µg/mL (≈ 115 µM)
- CC(=O)Cc1nsc(NC(=O)c2ccc(F)cc2)n1 — higher, > 41.9 µg/mL
- O=C(COC(=O)c1ccc([N+](=O)[O-])o1)Nc1ncc(Cl)cc1Cl — higher, > 54 µg/mL
- O=S(=O)(c1ccc(F)cc1)N1CC=C(c2ccccc2)CC1 — 11-fold lower, 2.6 µg/mL (≈ 8.19 µM)
- Cn1cnc2cc(NCc3ccc(Cl)cc3)ccc21 — higher, > 40.8 µg/mL
- NC1=NC(=O)/C(=C\c2cccnc2)S1 — higher, > 30.8 µg/mL
- O=C(CCC(=O)c1ccccc1)Nc1ccccc1 — within 1.5-fold, 22.5 µg/mL (≈ 88.8 µM)
- O=S1(=O)CCN(Cc2ccc(F)cc2)CC1 — higher, > 36.5 µg/mL
- Cn1nccc1C(=O)N1CCN(c2ccccc2F)CC1 — higher, > 43.2 µg/mL
- CC1(C)S[C@@H]2[C@H](NC(=O)C(C(=O)[O-])c3ccccc3)C(=O)N2[C@H]1C(=O)[O-].[Na+] (stereo not given in full) — higher, > 63.4 µg/mL
- Cc1[nH]c2ccccc2c1C(=O)C(=O)N1CCOCC1 — higher, > 40.8 µg/mL
- Cc1c(O)c(CN(C)C)cc2c1oc(=O)c1ccccc12 — higher, > 42.5 µg/mL
- CC1(C)C(=O)Nc2ccccc2N1C(=O)COC(=O)Cc1ccccc1F — higher, > 55.6 µg/mL
- Cc1cc(N2C(=O)Cc3ccccc3C2=O)ccc1C(C)C — within 1.5-fold, 35 µg/mL (≈ 119 µM)
- Cc1cccc(C(=O)NC(=S)NCc2ccccc2)c1 — 12-fold lower, 2.4 µg/mL (≈ 8.44 µM)
- O=C(Cc1cccc2ccccc12)NCC(=O)Nc1ccccc1F — 2.7-fold lower, 10.6 µg/mL (≈ 31.5 µM)
- CC1(C)CC(NC(=O)c2ccccc2F)CC(C)(C)N1 — higher, > 41.8 µg/mL
- O=C(c1cccc(S(=O)(=O)NCc2ccccc2)c1)N1CCN(c2ccccc2)CC1 — 12-fold lower, 2.4 µg/mL (≈ 5.51 µM)
- CCOC(=O)c1cn2nc(N3CCCCC3)ccc2n1 — higher, > 41.1 µg/mL
- Cc1nc(SCC(=O)Nc2ccccc2Cl)oc1C — higher, > 44.5 µg/mL
- Cc1ccc(/C=C/C(=O)OCC(=O)NCCc2ccc(S(N)(=O)=O)cc2)o1 — higher, > 58.9 µg/mL
- O=C(CCc1c[nH]c2ccccc12)NCCc1ccc(Cl)cc1 — 6.9-fold lower, 4.2 µg/mL (≈ 12.9 µM)
- Cc1ccccc1C(=O)NCCCNC(=O)c1ccco1 — within 1.5-fold, 42.9 µg/mL (≈ 150 µM)
- Oc1ccccc1Nc1nc(-c2ccccc2O)nc2ccccc12 — lower, < 0.2 µg/mL
- CCOC(=O)c1ccc(N2C(=O)C=C(N3CCOCC3)C2=O)cc1 — higher, > 49.6 µg/mL
- NC(=S)N1CCCc2ccccc21 — not separable, > 28.8 µg/mL
- CC1C(=O)N2CCCc3cc(NC(=O)C(=O)NCc4ccccn4)cc1c32 (stereo not given) — higher, > 54.7 µg/mL
- O=C(COC(=O)c1ccc(Cl)cc1[N+](=O)[O-])NC(=O)c1ccccc1 — 6-fold lower, 4.8 µg/mL (≈ 13.2 µM)
- Cc1ccccc1C(=O)NC1CCN(C(=O)Nc2ccc(F)cc2)CC1 — within 1.5-fold, 21.5 µg/mL (≈ 60.5 µM)
- COc1ccc(CNC(=O)C(=O)NC2CC(C)(C)NC(C)(C)C2)cc1 — higher, > 52.1 µg/mL
- Cc1ccc(NC(=O)C2CCCN2C(=O)Oc2ccccc2)c(C)c1 (stereo not given) — higher, > 50.8 µg/mL
- O=C(Cn1c(=O)oc2cccnc21)Nc1ccc(C(F)(F)F)cc1 — 3.3-fold lower, 8.9 µg/mL (≈ 26.4 µM)
- CC(C)n1c(SCC(=O)NC2CC2)nnc1-c1ccco1 — higher, > 46 µg/mL
- CS(=O)(=O)Nc1cc2c3c(c1)CCC(=O)N3CCC2 — within 1.5-fold, 39.9 µg/mL (≈ 142 µM)
- O=C(Oc1ccc(C(=S)N2CCOCC2)cc1)c1ccc(F)cc1 — 10-fold lower, 2.8 µg/mL (≈ 8.11 µM)
- COc1ccc2nc(Cl)cc(Cl)c2c1 — 32-fold lower, 0.9 µg/mL (≈ 3.95 µM)
- Cc1ccc(C(=O)Nc2ccncc2)cc1[N+](=O)[O-] — higher, > 38.6 µg/mL
- Cc1cccc(NC(=O)C2CCCN(c3cnccn3)C2)c1 (stereo not given) — within 1.5-fold, 27.2 µg/mL (≈ 91.8 µM)
- O=Cc1cn(CC(=O)N2CCc3ccccc32)c2ccccc12 — 72-fold lower, 0.4 µg/mL (≈ 1.31 µM)
- CCOC(=O)c1ccc(-n2c(CC)nc3ccccc3c2=O)cc1 — 21-fold lower, 1.4 µg/mL (≈ 4.34 µM)
- CC(=O)N1CCN(C(=O)c2cc3c(s2)CCCC3)CC1 — higher, > 43.9 µg/mL
- Cc1ccc(N(CC(=O)N2CCCC2)S(C)(=O)=O)cc1C — higher, > 46.6 µg/mL
- CC(C)[N+](C)(CCOC(=O)C1c2ccccc2Oc2ccccc21)C(C)C.[Br-] — higher, > 67.3 µg/mL
- CC(C)=C(NC(=O)c1ccccc1)C(=O)Nc1cccc(C(=O)O)c1 — higher, > 50.8 µg/mL
- COC(=O)c1ccc(S(=O)(=O)N(CCO)Cc2ccccc2)n1C — 1.6-fold higher, 47.6 µg/mL (≈ 135 µM)
- O=C1CSC(c2cccnc2)N1Cc1cccnc1 (stereo not given) — within 1.5-fold, 40.2 µg/mL (≈ 148 µM)
- O=C(O)c1ccccc1Nc1ccnc(Cl)n1 — higher, > 37.4 µg/mL
- CCCn1c(=O)c(C(=O)Nc2cc(C)ccn2)c(O)c2ccccc21 — lower, < 0.2 µg/mL
- O=C(Cc1cccc2ccccc12)NCCc1ccccc1 — 4.1-fold lower, 7.1 µg/mL (≈ 24.5 µM)
- NCC(c1ccccc1)c1c[nH]c2ccccc12 (stereo not given) — within 1.5-fold, 22.1 µg/mL (≈ 93.5 µM)
- Cc1csc(NC(=O)CN2C(=O)COc3ccc(Cl)cc32)n1 — 14-fold lower, 2.1 µg/mL (≈ 6.22 µM)
- NS(=O)(=O)c1ccc(CNC(=O)c2ccc(NS(=O)(=O)c3cccs3)cc2)cc1 — higher, > 67.7 µg/mL
- Cc1ccc(NC(=O)C2CCN(S(C)(=O)=O)CC2)cc1Cl — 1.8-fold lower, 16.4 µg/mL (≈ 49.6 µM)
